# Data as given in patent US20260256792A1, “TREATMENT OF CHRONIC SPONTANEOUS URTICARIA BY ADMINISTERING (R)-2-[3-[4-AMINO-3-(2-FLUORO-4-PHENOXY-PHENYL)PYRAZOLO[3,4-D]PYRIMIDIN-1-YL]PIPERIDINE-1-CARBONYL]-4-METHYL-4-[4-(OXETAN-3-YL)PIPERAZIN-1-YL]PENT-2-ENENITRILE” (priority 2023, published 2026).
# How the values were obtained:
# [1] = system: moderate-to-severe chronic spontaneous urticaria (CSU); assay: Phase 2 CSU study: Patient Global Impression of Severity (PGIS); format: in vivo, human; conditions: for PGIS Change from baseline Mean (SD) / PGIS Change from baseline Median / PGIS Median / PGIS Percent change from baseline Mean (SD) / PGIS Percent change from baseline Median / PGIS category Mild, patients / PGIS category Moderate, patients / PGIS category None, patients / PGIS category Severe, patients: omalizumab-naïve population; for PGIS % Change difference for rilzabrutinib vs. placebo LS Mean (95% CI) / PGIS % Change from baseline LS Mean (SE) / PGIS Change difference for rilzabrutinib vs. placebo LS Mean (95% CI) / PGIS Change from baseline LS Mean (SE): omalizumab-naïve, ANCOVA
# Excerpt: The study comprises a 12 week, randomized, double-blind, placebo-controlled, multi-center, dose-ranging efficacy and safety phase, followed by a 40 week open label extension (OLE) phase (see FIG. 1).
# The study consists of three phases and an optional OLE phase.
# The PGIS is a 1-item measure that asks participants to provide a self-assessment of their overall CSU severity for the past week on a 4 point scale. Response choices are: “None”, “Mild”, “Moderate” and “Severe”. The PGIC is a 1-item measure that asks the participant to provide a self-assessment of overall change in their CSU since the participant started taking the study medication on a 7-point scale. The response options range from “Very Much Better” to “Very Much Worse.” Patients were to complete questionnaires for the 2 items during their site visit.
# [2] = system: naturally occurring pemphigus foliaceus (PF); conditions: dogs with newly diagnosed pemphigus foliaceus; cited from earlier work
smiles,measurement,setting,value
"CC(C)(C=C(C#N)C(=O)N1CCC[C@@H](n2nc(-c3ccc(Oc4ccccc4)cc3F)c3c(N)ncnc32)C1)N1CCN(C2COC2)CC1 [rilzabrutinib, (R)-2-[3-[4-amino-3-(2-fluoro-4-phenoxy-phenyl)pyrazolo[3,4-d]pyrimidin-1-yl]piperidine-1-carbonyl]-4-methyl-4-[4-(oxetan-3-yl)piperazin-1-yl]pent-2-enenitrile]",PGIS Change from baseline Mean (SD),"[1]; Week 8, 400 mg BID",−1.00
same,PGIS Change from baseline Median,"[1]; Week 8, 400 mg BID",−1.00
same,PGIS Median,"[1]; Week 8, 400 mg BID",1.00
same,PGIS Percent change from baseline Mean (SD),"[1]; Week 8, 400 mg BID",−44.95%
same,PGIS Percent change from baseline Median,"[1]; Week 8, 400 mg BID",−50.00%
same,"PGIS category Mild, patients","[1]; Week 8, 400 mg BID",13 (39.4)
same,"PGIS category Moderate, patients","[1]; Week 8, 400 mg BID",7 (21.2)
same,"PGIS category None, patients","[1]; Week 8, 400 mg BID",9 (27.3)
same,"PGIS category Severe, patients","[1]; Week 8, 400 mg BID",4 (12.1)
same,PGIS % Change difference for rilzabrutinib vs. placebo LS Mean (95% CI),"[1]; Week 8, 400 mg BID","−12.18 (−30.63, 6.27) %"
same,PGIS % Change from baseline LS Mean (SE),"[1]; Week 8, 400 mg BID",−46.44 (6.74) %
same,PGIS Change difference for rilzabrutinib vs. placebo LS Mean (95% CI),"[1]; Week 8, 400 mg BID","−0.25 (−0.67, 0.16)"
same,PGIS Change from baseline Mean (SD),"[1]; Week 8, 400 mg QPM",0.67
same,PGIS Change from baseline Median,"[1]; Week 8, 400 mg QPM",−1.00
same,PGIS Median,"[1]; Week 8, 400 mg QPM",2.00
same,PGIS Percent change from baseline Mean (SD),"[1]; Week 8, 400 mg QPM",−25.25%
same,PGIS Percent change from baseline Median,"[1]; Week 8, 400 mg QPM",−33.33%
same,"PGIS category Mild, patients","[1]; Week 8, 400 mg QPM",10 (30.3)
same,"PGIS category Moderate, patients","[1]; Week 8, 400 mg QPM",14 (42.4)
same,"PGIS category None, patients","[1]; Week 8, 400 mg QPM",1 (3.0)
same,"PGIS category Severe, patients","[1]; Week 8, 400 mg QPM",8 (24.2)
same,PGIS % Change difference for rilzabrutinib vs. placebo LS Mean (95% CI),"[1]; Week 8, 400 mg QPM","9.27 (−9.09, 27.62) %"
same,PGIS % Change from baseline LS Mean (SE),"[1]; Week 8, 400 mg QPM",−24.99 (6.69) %
same,PGIS Change difference for rilzabrutinib vs. placebo LS Mean (95% CI),"[1]; Week 8, 400 mg QPM","0.24 (−0.17, 0.65)"
same,PGIS Change from baseline LS Mean (SE),"[1]; Week 8, 400 mg QPM",−0.61 (0.15)
same,PGIS Change from baseline Mean (SD),"[1]; Week 8, 400 mg TID",−1.13
same,PGIS Change from baseline Median,"[1]; Week 8, 400 mg TID",−1.00
same,PGIS Median,"[1]; Week 8, 400 mg TID",1.00
same,PGIS Percent change from baseline Mean (SD),"[1]; Week 8, 400 mg TID",47.22%
same,PGIS Percent change from baseline Median,"[1]; Week 8, 400 mg TID",−50.00%
same,"PGIS category Mild, patients","[1]; Week 8, 400 mg TID",12 (40.0)
same,"PGIS category Moderate, patients","[1]; Week 8, 400 mg TID",8 (26.7)
same,"PGIS category None, patients","[1]; Week 8, 400 mg TID",6 (20.0)
same,"PGIS category Severe, patients","[1]; Week 8, 400 mg TID",4 (13.3)
same,PGIS % Change difference for rilzabrutinib vs. placebo LS Mean (95% CI),"[1]; Week 8, 400 mg TID","−11.39 (−30.26, 7.48) %"
same,PGIS % Change from baseline LS Mean (SE),"[1]; Week 8, 400 mg TID",−45.65 (7.05) %
same,PGIS Change difference for rilzabrutinib vs. placebo LS Mean (95% CI),"[1]; Week 8, 400 mg TID","−0.17 (−0.58, 0.25)"
same,PGIS Change from baseline LS Mean (SE),"[1]; Week 8, 400 mg TID",−1.02 (0.15)
same,PGIS Change from baseline Mean (SD),"[1]; Week 12, 400 mg BID",−1.03
same,PGIS Change from baseline Median,"[1]; Week 12, 400 mg BID",−1.00
same,PGIS Median,"[1]; Week 12, 400 mg BID",1.00
same,PGIS Percent change from baseline Mean (SD),"[1]; Week 12, 400 mg BID",−43.55%
same,PGIS Percent change from baseline Median,"[1]; Week 12, 400 mg BID",−50.00%
same,"PGIS category Mild, patients","[1]; Week 12, 400 mg BID",6 (19.4)
same,"PGIS category Moderate, patients","[1]; Week 12, 400 mg BID",10 (32.3)
same,"PGIS category None, patients","[1]; Week 12, 400 mg BID",12 (38.7)
same,"PGIS category Severe, patients","[1]; Week 12, 400 mg BID",3 (9.7)
same,PGIS % Change difference for rilzabrutinib vs. placebo LS Mean (95% CI),"[1]; Week 12, 400 mg BID","−13.46 (−33.69, 6.76) %"
same,PGIS % Change from baseline LS Mean (SE),"[1]; Week 12, 400 mg BID",−45.76 (7.46) %
same,PGIS Change difference for rilzabrutinib vs. placebo LS Mean (95% CI),"[1]; Week 12, 400 mg BID","−0.34 (−0.77, 0.10)"
same,PGIS Change from baseline LS Mean (SE),"[1]; Week 12, 400 mg BID",−1.14 (0.16)
same,PGIS Change from baseline Mean (SD),"[1]; Week 12, 400 mg QPM",−0.68
same,PGIS Change from baseline Median,"[1]; Week 12, 400 mg QPM",−1.00
same,PGIS Median,"[1]; Week 12, 400 mg QPM",2.00
same,PGIS Percent change from baseline Mean (SD),"[1]; Week 12, 400 mg QPM",−27.45%
same,PGIS Percent change from baseline Median,"[1]; Week 12, 400 mg QPM",−33.33%
same,"PGIS category Mild, patients","[1]; Week 12, 400 mg QPM",10 (29.4)
same,"PGIS category Moderate, patients","[1]; Week 12, 400 mg QPM",15 (44.1)
same,"PGIS category None, patients","[1]; Week 12, 400 mg QPM",1 (2.9)
same,"PGIS category Severe, patients","[1]; Week 12, 400 mg QPM",8 (23.5)
same,PGIS % Change difference for rilzabrutinib vs. placebo LS Mean (95% CI),"[1]; Week 12, 400 mg QPM","5.87 (−13.65, 25.38) %"
same,PGIS % Change from baseline LS Mean (SE),"[1]; Week 12, 400 mg QPM",−26.42 (7.16) %
same,PGIS Change difference for rilzabrutinib vs. placebo LS Mean (95% CI),"[1]; Week 12, 400 mg QPM","0.21 (−0.22, 0.63)"
same,PGIS Change from baseline LS Mean (SE),"[1]; Week 12, 400 mg QPM",−0.59 (0.15)
same,PGIS Change from baseline Mean (SD),"[1]; Week 12, 400 mg TID",−1.17
same,PGIS Change from baseline Median,"[1]; Week 12, 400 mg TID",−1.00
same,PGIS Median,"[1]; Week 12, 400 mg TID",1.00
same,PGIS Percent change from baseline Mean (SD),"[1]; Week 12, 400 mg TID",−47.22%
same,PGIS Percent change from baseline Median,"[1]; Week 12, 400 mg TID",−50.00%
same,"PGIS category Mild, patients","[1]; Week 12, 400 mg TID",13 (43.3)
same,"PGIS category Moderate, patients","[1]; Week 12, 400 mg TID",8 (26.7)
same,"PGIS category None, patients","[1]; Week 12, 400 mg TID",6 (20.0)
same,"PGIS category Severe, patients","[1]; Week 12, 400 mg TID",3 (10.0)
same,PGIS % Change difference for rilzabrutinib vs. placebo LS Mean (95% CI),"[1]; Week 12, 400 mg TID","−12.67 (−32.97, 7.63) %"
same,PGIS % Change from baseline LS Mean (SE),"[1]; Week 12, 400 mg TID",−44.96 (7.44) %
same,PGIS Change difference for rilzabrutinib vs. placebo LS Mean (95% CI),"[1]; Week 12, 400 mg TID","−0.24 (−0.67, 0.19)"
same,PGIS Change from baseline LS Mean (SE),"[1]; Week 12, 400 mg TID",−1.04 (0.16)
same,cases with disease controlled without corticosteroid,[2],4 of 4
